Results taken from US5563155A, “Individual stereosiomers of 7-[3-(aminoalkyl)-1-pyrrolidinyl]-quinolones and naphthyridones as antibacterial agents” (Warner-Lambert Company, priority 1995, dated 1996).
≈ marks a conversion by molar mass, not a printed value. Like-named read-outs stand apart in the source and are kept apart here.

How the values were obtained:
Ent. cloacae MA2646 = assay: in vitro antibacterial activity, microtitration dilution (MIC), Ent. cloacae MA2646; format: cell-based; conditions: Enterobacter cloacae, read-out: minimum inhibiting concentration (MIC)
From the text: (§1) The in vitro antibacterial activity, is obtained by the microtitration dilution method as described in Heifetz, et al., Antimicr. Agents & Chemother., 6, 124 (1974), which is incorporated herein by reference.
(§2) By use of the above methods, the following minimum inhibiting concentration values (MICs in μg/mL), PD50 's in mg/kg, no effect phototoxicity dose in mg/kg and the cytotoxicity IC50 in μg/mL were obtained for representative enantiomers of the invention and compounds of the prior art as shown in the table.

Esch. coli Vogel = assay: in vitro antibacterial activity, microtitration dilution (MIC), Esch. coli Vogel; format: cell-based; conditions: Escherichia coli, read-out: minimum inhibiting concentration (MIC)
From the text: as §1, §2

Klebs. pneumoniae MGH-2 = assay: in vitro antibacterial activity, microtitration dilution (MIC), Klebs. pneumoniae MGH-2; format: cell-based; conditions: Klebsiella pneumoniae, MGH2, read-out: minimum inhibiting concentration (MIC)
From the text: as §1, §2

Prot. rettgeri M 1771 = assay: in vitro antibacterial activity, microtitration dilution (MIC), Prot. rettgeri M 1771; format: cell-based; conditions: Providencia rettgeri, M1771, read-out: minimum inhibiting concentration (MIC)
From the text: as §1, §2

Pseud. aeruginosa UI-18 = assay: in vitro antibacterial activity, microtitration dilution (MIC), Pseud. aeruginosa UI-18; format: cell-based; conditions: Pseudomonas aeruginosa, UI18, read-out: minimum inhibiting concentration (MIC)
From the text: as §1, §2

Staph. aureus H 228 = assay: in vitro antibacterial activity, microtitration dilution (MIC), Staph. aureus H 228; format: cell-based; conditions: Staphylococcus aureus, H228, read-out: minimum inhibiting concentration (MIC)
From the text: as §1, §2

Staph. aureus UC-76 = assay: in vitro antibacterial activity, microtitration dilution (MIC), Staph. aureus UC-76; format: cell-based; conditions: Staphylococcus aureus, UC76, read-out: minimum inhibiting concentration (MIC)
From the text: as §1, §2

Strep. faecalis MGH-2 = assay: in vitro antibacterial activity, microtitration dilution (MIC), Strep. faecalis MGH-2; format: cell-based; conditions: Enterococcus faecalis, MGH2, read-out: minimum inhibiting concentration (MIC)
From the text: as §1, §2

Strep. pheumoniae SV-1 = assay: in vitro antibacterial activity, microtitration dilution (MIC), Strep. pneumoniae SV-1; format: cell-based; conditions: Streptococcus pneumoniae, SV1, read-out: minimum inhibiting concentration (MIC)
From the text: as §1, §2

Strep. pyogenes C-203 [1] = assay: in vitro antibacterial activity, microtitration dilution (MIC), Strep. pyogenes C-203; format: cell-based; conditions: Streptococcus pyogenes, C203, read-out: minimum inhibiting concentration (MIC)
From the text: as §1, §2

Strep. pyogenes C-203 [2] = assay: median protective dose in mice given lethal systemic infections, Strep. pyogenes C-203; format: in vivo; conditions: Streptococcus pyogenes, single dose at time of challenge, read-out: median protective dose (PD50)
Protocol: The in vivo activity is obtained when the compounds are tested according to the procedure of Miller, et al (Proc. Soc. Exp. Biol. Med. 57, 261, 1944). The median protective dose (PD50) was determined in mice given lethal systemic infections. Single doses of compound were given at time of challenge.
as §2
The in vivo data as PD50 s are reported below the line of MICs for the same compound.

Row | SMILES | MIC (Ent. cloacae MA2646) | MIC (Esch. coli Vogel) | MIC (Klebs. pneumoniae MGH-2) | MIC (Prot. rettgeri M 1771) | MIC (Pseud. aeruginosa UI-18) | MIC (Staph. aureus H 228) | MIC (Staph. aureus UC-76) | MIC (Strep. faecalis MGH-2) | MIC (Strep. pheumoniae SV-1) | MIC (Strep. pyogenes C-203 [1]) | ED50 (Strep. pyogenes C-203 [2]; C203, PO) | ED50 (Strep. pyogenes C-203 [2]; C203, SC)
1 | CCN[C@@H](C)[C@@H]1CCN(c2nc3c(cc2F)c(=O)c(C(=O)O)cn3C2CC2)C1 [Example 78, 3R,1S-1-cyclopropyl-7-[3-[1-(ethylamino)ethyl]-1-pyrrolidinyl]-6-fluoro-1,4-dihydro-4-oxo-1,8-naphthyridine-3-carboxylic acid] | 0.4 µg/mL (≈ 1.03 µM) | 0.1 µg/mL (≈ 0.257 µM) | 0.2 µg/mL (≈ 0.515 µM) | 1.6 µg/mL (≈ 4.12 µM) | 1.6 µg/mL (≈ 4.12 µM) | 0.05 µg/mL (≈ 0.129 µM) | 0.025 µg/mL (≈ 0.0644 µM) | 0.05 µg/mL (≈ 0.129 µM) | 0.025 µg/mL (≈ 0.0644 µM) | 0.05 µg/mL (≈ 0.129 µM) | 6 mg/kg | 4 mg/kg
2 | C[C@@H](N)[C@@H]1CCN(c2nc3c(cc2F)c(=O)c(C(=O)O)cn3-c2ccc(F)cc2F)C1 [Example 48, 3R,1R-7-[3-(1-aminoethyl)-1-pyrrolidinyl]-1-(2,4-difluorophenyl)-6-fluoro-1,4-dihydro-1,8-naphthyridine-3-carboxylic acid] | 0.1 µg/mL (≈ 0.231 µM) | 0.1 µg/mL (≈ 0.231 µM) | 0.2 µg/mL (≈ 0.463 µM) | 0.4 µg/mL (≈ 0.925 µM) | 1.6 µg/mL (≈ 3.7 µM) | 0.1 µg/mL (≈ 0.231 µM) | 0.025 µg/mL (≈ 0.0578 µM) | 0.1 µg/mL (≈ 0.231 µM) | 0.05 µg/mL (≈ 0.116 µM) | 0.05 µg/mL (≈ 0.116 µM) | 9 mg/kg | 3 mg/kg
3 | Cc1c(F)c(N2CC[C@@H]([C@H](C)N)C2)cc2c1c(=O)c(C(=O)O)cn2C1CC1 [Example 47, 3R,1S-7-[3-(1-aminoethyl)-1-pyrrolidinyl]-1-cyclopropyl-6-fluoro-1,4-dihydro-5-methyl-4-oxo-3-quinolinecarboxylic acid] | 0.1 µg/mL (≈ 0.268 µM) | 0.1 µg/mL (≈ 0.268 µM) | 0.1 µg/mL (≈ 0.268 µM) | 0.2 µg/mL (≈ 0.536 µM) | 0.8 µg/mL (≈ 2.14 µM) | 0.025 µg/mL (≈ 0.0669 µM) | 0.003 µg/mL (≈ 0.00803 µM) | 0.025 µg/mL (≈ 0.0669 µM) | 0.003 µg/mL (≈ 0.00803 µM) | 0.003 µg/mL (≈ 0.00803 µM) | – | –

More lines, main results first:

Row | MIC (Ent. cloacae MA2646) | MIC (Esch. coli Vogel) | MIC (Klebs. pneumoniae MGH-2) | MIC (Prot. rettgeri M 1771) | MIC (Pseud. aeruginosa UI-18) | MIC (Staph. aureus H 228) | MIC (Staph. aureus UC-76) | MIC (Strep. faecalis MGH-2) | MIC (Strep. pheumoniae SV-1) | MIC (Strep. pyogenes C-203 [1]) | SMILES | ED50 (Strep. pyogenes C-203 [2]; C203, PO) | ED50 (Strep. pyogenes C-203 [2]; C203, SC)
4 | 0.013 µg/mL (≈ 0.0331 µM) | 0.013 µg/mL (≈ 0.0331 µM) | 0.013 µg/mL (≈ 0.0331 µM) | 0.025 µg/mL (≈ 0.0637 µM) | 0.4 µg/mL (≈ 1.02 µM) | 0.003 µg/mL (≈ 0.00765 µM) | 0.003 µg/mL (≈ 0.00765 µM) | 0.003 µg/mL (≈ 0.00765 µM) | 0.003 µg/mL (≈ 0.00765 µM) | 0.003 µg/mL (≈ 0.00765 µM) | C[C@H](N)[C@@H]1CCN(c2c(F)c(N)c3c(=O)c(C(=O)O)cn(C4CC4)c3c2F)C1 [Example 58, 3R,1S-5-amino-7-[3-(1-aminoethyl)-1-pyrrolidinyl]-1-cyclopropyl-6,8-difluoro-1,4-dihydro-4-oxo-3-quinolinecarboxylic acid] | – | –
5 | 0.05 µg/mL (≈ 0.128 µM) | 0.05 µg/mL (≈ 0.128 µM) | 0.1 µg/mL (≈ 0.257 µM) | 0.2 µg/mL (≈ 0.514 µM) | 0.8 µg/mL (≈ 2.05 µM) | 0.25 µg/mL (≈ 0.642 µM) | ≤ 0.03 µg/mL | 0.025 µg/mL (≈ 0.0642 µM) | 0.013 µg/mL (≈ 0.0334 µM) | 0.013 µg/mL (≈ 0.0334 µM) | COc1c(N2CC[C@@H]([C@@H](C)N)C2)c(F)cc2c(=O)c(C(=O)O)cn(C3CC3)c12 [Example 45, 3R,1R-7-[3-(1-aminoethyl)-1-pyrrolidinyl]-1-cyclopropyl-6-fluoro-1,4-dihydro-8-methoxy-4-oxo-3-quinolinecarboxylic acid] | – | –
6 | 0.8 µg/mL (≈ 1.74 µM) | 0.8 µg/mL (≈ 1.74 µM) | 1.6 µg/mL (≈ 3.47 µM) | 3.1 µg/mL (≈ 6.73 µM) | > 3.1 µg/mL | 0.2 µg/mL (≈ 0.434 µM) | 0.05 µg/mL (≈ 0.109 µM) | 0.4 µg/mL (≈ 0.869 µM) | 0.2 µg/mL (≈ 0.434 µM) | 0.2 µg/mL (≈ 0.434 µM) | CCN[C@H](C)[C@@H]1CCN(c2nc3c(cc2F)c(=O)c(C(=O)O)cn3-c2ccc(F)cc2F)C1 [Example 51, 3R,1R-7-[3-(1-N-ethylaminoethyl)-1-pyrrolidinyl]-1-(2,4-difluorophenyl)-6-fluoro-1,4-dihydro-4-oxo-1,8-naphthyridine-3-carboxylic acid] | – | –
7 | 0.1 µg/mL (≈ 0.267 µM) | 0.1 µg/mL (≈ 0.267 µM) | 0.2 µg/mL (≈ 0.534 µM) | 0.8 µg/mL (≈ 2.14 µM) | 1.6 µg/mL (≈ 4.27 µM) | 0.2 µg/mL (≈ 0.534 µM) | 0.05 µg/mL (≈ 0.134 µM) | 0.2 µg/mL (≈ 0.534 µM) | 0.1 µg/mL (≈ 0.267 µM) | 0.1 µg/mL (≈ 0.267 µM) | CN[C@H](C)[C@H]1CCN(c2nc3c(cc2F)c(=O)c(C(=O)O)cn3C2CC2)C1 [Example 23, 3S,1R-1-cyclopropyl-6-fluoro-7-[3-(1-N-methylaminoethyl)-1-pyrrolidinyl]-1,4-dihydro-4-oxo-1,8-naphthyridine-3-carboxylic acid] | – | –
